The target in one series is T1, human CYP 1A2 (Homo sapiens, UniProt P05177).
T1 sequence (P05177 1-516): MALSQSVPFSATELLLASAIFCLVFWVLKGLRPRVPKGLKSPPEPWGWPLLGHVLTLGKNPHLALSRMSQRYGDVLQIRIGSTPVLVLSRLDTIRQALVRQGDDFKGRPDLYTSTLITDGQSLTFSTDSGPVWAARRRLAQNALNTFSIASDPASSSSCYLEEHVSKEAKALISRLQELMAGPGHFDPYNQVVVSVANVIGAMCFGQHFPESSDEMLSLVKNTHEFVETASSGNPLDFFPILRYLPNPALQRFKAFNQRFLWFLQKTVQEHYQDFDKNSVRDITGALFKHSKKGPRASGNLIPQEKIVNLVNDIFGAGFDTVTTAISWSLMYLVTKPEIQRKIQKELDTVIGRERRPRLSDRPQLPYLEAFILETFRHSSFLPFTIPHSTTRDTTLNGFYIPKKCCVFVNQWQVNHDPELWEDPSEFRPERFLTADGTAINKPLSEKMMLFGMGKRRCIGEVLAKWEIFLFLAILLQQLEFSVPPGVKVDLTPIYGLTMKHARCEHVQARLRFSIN
The series can be described thus: CYP inhibition assay, CYP 1A2. The series is classed as in vitro ADME. The protocol: This study was conducted using specific substrates for 5 major human CYP isozymes. These substrates were used as a cocktail (phenacetin, diclofenac, S-mephenytoin, bufuralol and midazolam which are predominantly metabolised by CYP 1A2, 2C9, 2C19, 2D6 and 3A4/5, respectively) at concentrations equivalent to their respective Km values. LC-MS-MS (MRM mode) was used to follow the formation of the CYP specific metabolites. A decrease in the formation of the metabolites in peak area to vehicle control was used to calculate the IC50 value. […] Test compound was used at 6 different concentrations ([…]) to estimate IC50.
The incubation was carried out in 96 deep well plates. Mixture of 180 μL of 20 mg/mL HLM and 90 μL of substrate cocktail solution was added to 15840 μL of phosphate buffer and 179 μL of this mixture was mixed with 1 μL of the test compound, inhibitor cocktail solution or vehicle in each well. The final concentration of DMSO:ACN in the assay mix was 0.3:0.7% v/v. The incubation plate was placed into the water bath and pre-warmed at 37° C. for 5 min before the reactions were started by the addition of 20 μL of 10 mmol/L NADPH solution in phosphate buffer. After the addition of NADPH, the incubation plate was incubated at 37° C. for a further 5 min. The reaction was quenched by the addition of 1 volume (200 μL) of cold ACN containing 3% formic acid and 40 nmol/L verapamil. The plates were kept on ice for 20 min and then centrifuged at 4000 rpm for 30 min to precipitate protein. The supernatant 180 μL was transferred to the analysis plate for LC/MS/MS analysis.

The nature of series [1]: Caco-2 permeability assay. The following applies: human; Caco-2, 10 μM, pH 6.5/7.4. The series is classed as in vitro ADME. The protocol:
Caco-2 Permeability Assay
Permeability in a Caco-2 monolayer was determined at 10 μM. The Caco-2 cell monolayers were washed once with HBSS. TEER was measured both before and after performing all the transport experiments. Papp was measured in apical A to basolateral B direction. Transport buffer, 800 μL (HBSS, pH 7.4) was first dispensed to the basal side of the monolayer. The assay was then initiated by adding 200 μL of compound solution to the apical side (all test compounds were diluted in HBSS, pH 6.5, with 1% DMSO as co-solvent). Two μL and 200 μL of samples were withdrawn, before and at 45 and 120 min post addition of test compound, from the apical donor compartment and the basolateral receiver compartment, respectively. The transwell plates were incubated at 37° C. on a shaker at 480 rpm inside the incubator. All samples were immediately analysed by LC-MS/MS. A passive permeability was determined by complete chemical inhibition of the three major efflux transporters, ABCB1 (P-gp), ABCG2 (BCRP) and ABCC2 (MRP2), in Caco-2 cells using a cocktail of chemical inhibitors: quinidine (P-gp), sulfasalazine (BCRP) and benzbromarone (MRP2).
The apparent permeability coefficient (Papp) was calculated according to the following equation: Papp=(ΔQ/Δt)/(A×CD)[cm/s] (1) where (ΔQ/Δt) […] is the cumulative amount of test compound transported over time to the basolateral (receiver) side, A is the surface area of the monolayer membrane (cm^2) and CD is the average drug concentration in the donor chamber over the period for which (ΔQ/Δt) was determined.

The nature of series [2]: Plasma protein binding assay (equilibrium dialysis), dog. The class given is in vitro ADME. As to the method:
Plasma Protein Binding Assay
Protein binding is measured using the equilibrium dialysis technique. Compound is added to 10% plasma giving a concentration of 20 μM and dialysed with isotonic buffer for 18 hours at 37° C. The plasma and buffer solutions are analysed using generic LCUVMS and the first apparent binding constant for the compound derived. The binding constant is then used to determine the % free in 100% plasma.

A short description of series [3]: Prediction of hepatic blood clearance (well stirred model), dog.
Series [4] can be described thus: Blood:Plasma (BP) ratio, dog. The following applies: 10 μM, 37° C., 30 min. The class given is in vitro ADME. The protocol: Determination of Blood:Plasma (BP) Ratio
The incubation plate and the dog blood/plasma was preheated at 37° C. for 10 minutes. 2 μL of working solution of each compound was added to 398 μL of dog reference plasma or blood to achieve a final concentration of 10 μM. Plates were incubated at 37° C. with shaking for 30 min. After incubation, the blood samples are spun for 10 min. at 4,000 rpm (37° C.) and the plasma samples were stored at 37° C. Aliquots (100 μL) of plasma separated from centrifuged whole blood samples and reference plasma samples were transferred into 96-well plates. 400 μL of cold acetonitrile was added to precipitate protein and release compound. After vortexing for 10 min., plates were centrifuged for 30 min. at 4,000 rpm. 250 μL of the supernatant was transferred to new 96-well plates and centrifuged again at 4,000 rpm for 30 min. 100 μL of the supernatant was used for analysis by LC-MS/MS.

In a further series the test system is hepatocytes. The series can be described thus: Metabolic stability assay (hepatocyte Clint), dog. The class given is in vitro ADME. The following applies: 1 μM compound.
Series [5] can be described thus: Pharmacokinetics in the blood of infected Pf/SCID mice. Conditions: 40 mg/kg. The class given is in vivo. The protocol: Pharmacokinetics in the Blood of Infected Pf/SCID Mice:
Peripheral blood samples (25 μl) were taken at different times (0.25, 0.5, 1, 2, 4, 6, 8 and 23 hours), mixed with 25 µl of H2O mili Q and immediately frozen on dry ice. The frozen samples were stored at −80° C. until analysis. Vehicle-treated mice experienced the same blood-sampling regimen. Blood samples were processed by liquid-liquid extraction by mixing 10 μl diluted blood with 180 μl AcN:MeOH (80:20; v:v) mixture. Quantitative analysis by LC/MSMS was performed using UPLC (Waters) and Sciex API4000. The lower limit of quantification (LLOQ) in this assay was 0.005 μg/ml.

[6] abbreviates: human liver microsomes, substrate cocktail, read-out: IC50 CYP 1A2.

Where a name gives a salt, the structure may show the parent alone. Read-outs that look alike come from different tables or passages of the source. A value given as a limit tells only on which side of the number the result lay.

As a reminder, the IC50 is the concentration at which inhibition is half-maximal. Usually Papp A→B stands for how fast a substance crosses the layer from the apical side. Lower therefore signals slow passage.

The molecule `CCc1cc(Nc2ncc(N3CCN[C@H](C)C3)c(Nc3cc(C)n(C)n3)n2)nc(C)c1F` [Example 7, (R)—N4-(1,5-dimethyl-1H-pyrazol-3-yl)-N2-(4-ethyl-5-fluoro-6-methylpyridin-2-yl)-5-(3-methylpiperazin-1-yl)pyrimidine-2,4-diamine dihydrochloride] showed an IC50 at human CYP 1A2 of over 30 µM. The Papp A→B at 120 min, 10 μM in series [1] was determined as 5 ×10⁻⁶ cm/s.

As for `Cc1nc(Nc2ncc(N3CCN[C@H](C)C3)c(Nc3cnn(C)n3)n2)cc(C2CC2)c1Cl` [Example 10, (R)—N2-(5-chloro-4-cyclopropyl-6-methylpyridin-2-yl)-N4-(2-methyl-2H-1,2,3-triazol-4-yl)-5-(3-methylpiperazin-1-yl)pyrimidine-2,4-diamine dihydochloride], in series [2], the Fup came out at 0.04. Besides, on human CYP 1A2 (setting [6]), the IC50 was over 30 µM. Also, the “Predicted CLh blood” value in series [3] is 12.70 mL/min/kg. Moreover, the BP ratio in series [4] is 1.7. Moreover, the Papp A→B at 120 min, 10 μM in series [1] stood at 3.8 ×10⁻⁶ cm/s. The “Hep. Clint” value in the series with hepatocytes is 5.1 μl/min/1E6.

In series [2], `Cc1nc(Nc2ncc(N3CCN(C)[C@H](C)C3)c(Nc3cc(C)n(C)n3)n2)cc(C2CC2)c1F` [Example 13, (R)—N2-(4-cyclopropyl-5-fluoro-6-methylpyridin-2-yl)-N4-(1,5-dimethyl-1H-pyrazol-3-yl)-5-(3,4-dimethylpiperazin-1-yl)pyrimidine-2,4-diamine] registered a Fup of 0.04. Moreover, the IC50 at human CYP 1A2 (setting [6]) was over 30 µM. For the same molecule, the “Predicted CLh blood” value in series [3] is 20.80 mL/min/kg. Moreover, the BP ratio in series [4] is on record as 1.35. Besides, the Papp A→B at 120 min, 10 μM in series [1] was determined as 19.5 ×10⁻⁶ cm/s. In addition, the “Blood Cmin (minimum parasiticidal concentration, MPC)” value in series [5] turned out to be 40 nM. For the same molecule, the “Hep. Clint” value with hepatocytes worked out at 9.3 μl/min/1E6.

The values above are taken from patent US9957253B2, “Triaminopyrimidine compounds useful for preventing or treating malaria” (MMV MEDICINES FOR MALARIA VENTURE, priority 2014, dated 2018).
